According to paper PMC7344659, “Bioactivity of Spongian Diterpenoid Scaffolds from the Antarctic Sponge Dendrilla antarctica” (Marine Drugs, 2020):
Read-outs that look alike come from different tables or passages of the source.

How the values were obtained:
Leishmania donovani [1] = assay: Leishmania donovani infected macrophage assay; type: cell-based
Protocol: (§1) The full suite of Dendrilla antarctica-derived compounds, with the exception of darwinolide (1) and dendrillin D (12) owing to mass limitations, were tested against Leishmania donovani infected macrophages, liver-stage sporozoites in primary human hepatocytes, and against MRSA biofilm. Cytotoxicity was evaluated using the mammalian J774A.1 cell line in L. donovani-active compounds, while primary human hepatocytes were evaluated for malaria-active compounds.
The results from the Leishmania donovani assay (Table 2) indicate activity commensurate with the positive control and current standard of care, miltefosine (2.9 µM) is observed in aplysulphurin (2, 3.1 μM), tetrahydroaplysulphurin-1 (4, 3.5 μM), dendrillin B (10, 3.5 μM), 8-ketodihydrogracilin (13, 4.5 μM), and triol 15 (4.5 μM).
(§2) The Leishmania donovani cell line infected macrophage assay and cytotoxicity screen were conducted as previously described.

[2] = J774A.1-cell cytotoxicity assay (uninfected macrophage); type: cell-based; settings: mouse, J774A.1 macrophage cells (uninfected); Table 3; unit not given (μM in Table 2); read-out: J774 Cytotoxiciy
Protocol: as §1, §2

J774A.1 macrophages [3] = assay: as above; type: cell-based; settings: Mus musculus, J774.A1; cytotoxicity, uninfected J774A.1 macrophages; single point determination; read-out: Leishmania donovani IC50 Uninfected Macrophage
Protocol: as §1, §2

MRSA biofilm = MRSA biofilm eradication assay; type: cell-based, methicillin-resistant Staphylococcus aureus; settings: for inhibition at 25 µg/mL / inhibition at 50 µg/mL / inhibition at 100 µg/mL: Staphylococcus aureus, MRSA, % (Std. Dev.), n = 6; for inhibition at 25 µg/mL: 25 μg/mL; for inhibition at 50 µg/mL: 50 μg/mL; for inhibition at 100 µg/mL: 100 μg/mL; for concentration at which activity against MRSA biofilm was exhibited: eradication level not given
Protocol: The MRSA biofilm assay was carried out at concentrations of 100, 50, and 25 µg/mL for each compound, and activities representing 50% and 90% eradication are reported.
The MRSA biofilm assay was conducted as previously reported.

[4] = test system: primary human hepatocytes; assay: Cytotoxicity towards uninfected primary human hepatocytes; type: cell-based; settings: for inhibition at 5 µg/mL: Hepatocyte, 5 μg/mL, uninfected primary human hepatocytes, % (Standard Deviation), n = 3, read-out: Plasmodium falciparum Inhibition at 5 μg/mL Uninfected PHHs
Protocol: as §1
(§3) For the Plasmodium falciparum infected liver cells, screening was conducted at a fixed concentration of 5 µg/mL for each compound, and activities representing 60% inhibition and 100% inhibition are reported in comparison with the positive control primaquine. […] Aplysulphurin (2) at ≤13 μM was also active at the highest level.
(§4) The liver-stage Plasmodium falciparum assay was conducted as previously reported.

Plasmodium falciparum = assay: Liver-stage Plasmodium falciparum assay in primary human hepatocytes; type: cell-based; settings: for inhibition at 5 µg/mL: Plasmodium falciparum, Hepatocyte, 5 μg/mL, infected primary human hepatocytes, % (Standard Deviation), n = 3, read-out: Plasmodium falciparum Inhibition at 5 μg/mL Infected PHHs; for concentration with modest activity (60% inhibition) against P. falciparum infected liver cells: 60% inhibition level
Protocol: as §1, §3, §4

J774A.1 macrophages [5] = test system: J774A.1 macrophages; design: method as in PMID 32281798; settings: ref [15], cited from earlier work
Leishmania donovani [6] = test system: Leishmania donovani; design: method as in PMID 32281798; settings: ref [15], cited from earlier work
[7] = J774A.1 macrophages, single point determination, read-out: Leishmania donovani IC50 Infected Macrophage
[8] = Leishmania donovani, Macrophage, Table 3, unit not given (μM in Table 2), read-out: Pathogen Activity, Leishmania donovani
[9] = cytotoxicity, uninfected J774A.1 macrophages, single point determination, read-out: Leishmania donovani IC50 Uninfected Macrophage
[10] = Leishmania donovani, J774.A1, J774A.1 macrophages, single point determination, read-out: Leishmania donovani IC50 Infected Macrophage

Row | SMILES | IC50 (J774A.1 macrophages [3]) [µM] | inhibition at 25 µg/mL (MRSA biofilm) [%] | inhibition at 50 µg/mL (MRSA biofilm) [%] | inhibition at 100 µg/mL (MRSA biofilm) [%] | inhibition at 5 µg/mL [4] [%] | inhibition at 5 µg/mL (Plasmodium falciparum) [%] | IC50 (Leishmania donovani [1]; [10]) [µM] | other results
1 | COC(=O)C(C)c1c(C2(C)CCCC(C)(C)C2)ccc2c1C(O)OC2=O (centres unmarked) [Dendrillin B (10), dendrillin B] | > 140 | 37 | 19.4 | 90.7 | 0 | 0 |  | IC50 (Leishmania donovani [1]; [7]): < 10 µM; IC50 (Leishmania donovani [1]; [8]): 3.5 µM; IC50 [2]: > 140 µM
2 | COc1cc(NC(C)CCCN)c2ncccc2c1 (centres unmarked) [Primaquine, primaquine, reference compound] |  |  |  |  | 0 | 97.8 |  | 
3 | CC(=O)OC1OC2OC(=O)C(C)C3=C(C4(C)CCCC(C)(C)C4)CCC1C32 (centres unmarked) [Tetrahydroaplysulphurin-1 (4), tetrahydroaplysulphurin-1] |  | 35 | 31.1 | 20.8 | 3 | 66.7 |  | IC50 (J774A.1 macrophages [5]; Table 3, no unit printed there, same values marked as from reference in Table 2, read-out: J774 Cytotoxiciy): > 130 µM; IC50 (J774A.1 macrophages [5]; [9]): > 130 µM; IC50 (Leishmania donovani [6]; [7]): 3.5 µM; IC50 (Leishmania donovani [6]; Table 3, unit not given (μM in Table 2), read-out: Pathogen Activity, Leishmania donovani): 3.5 µM; concentration with modest activity (60% inhibition) against P. falciparum infected liver cells (Plasmodium falciparum; screen at fixed 5 µg/mL): ≤ 13 µM
4 | CCC1=C(C=O)[C@H](C(=O)OC)CC[C@@H]1[C@@]1(C)CCCC(C)(C)C1 (relative stereo) [Dendrillin C (11), dendrillin C] | > 160 | 84 | 97.8 | 99.2 | 3.4 | 1.3 | > 31 | IC50 [2]: > 160 µM; Pathogen Activity, MRSA Biofilm (MRSA biofilm; Table 3, no unit printed there (58 μM)): 78; concentration achieving 50% eradication of MRSA biofilm (MRSA biofilm; tested at 100, 50 and 25 µg/mL, 50% eradication): 25 µg/mL; concentration at which activity against MRSA biofilm was exhibited (MRSA biofilm; tested at 100, 50 and 25 µg/mL): 50 µg/mL
5 | C/C(=C1\CCCC1(C)C)[C@H]1CC[C@H]2C(=O)OC[C@H]2C1(C)C [Glaciolide (6), glaciolide] | > 170 | 20 | 20.8 | 32.2 | 4.5 | 0 | 8.8 | 
6 | CC(=O)OC1OC(OC(C)=O)C2C(=O)C(C3(C)CCCC(C)(C)C3)CCC12 (centres unmarked) [8-Ketodihydrogracilin (13), 8-ketodihydrogracilin] | 22 | 5.7 | 97.7 | 99.7 | 2.3 | 0 | 4.5 | IC50 (Leishmania donovani [1]; [8]): 4.5 µM; Selectivity Index (SI), Leishmania donovani (Leishmania donovani [1]; Table 3, SI = J774 IC50/pathogen IC50): 5; IC50 [2]: 22 µM; concentration at which activity against MRSA biofilm was exhibited (MRSA biofilm; tested at 100, 50 and 25 µg/mL): 50 µg/mL
7 | CC(=O)O[C@@H]1OC2OC(=O)[C@H](C)C34OOC([C@@]5(C)CCCC(C)(C)C5)(CC[C@@H]1C23)O4 (some centres unmarked) [Ozonide (14), tetrahydroaplysulphurin ozonide] | 17 | 17.7 | 40.6 | 99.9 | 18.6 | 61.7 | 9.9 | concentration with modest activity (60% inhibition) against P. falciparum infected liver cells (Plasmodium falciparum; screen at fixed 5 µg/mL): ≤ 15 µM
8 | CC(=O)O[C@@H]1O[C@H]2OC(=O)[C@H](C)c3c([C@@]4(C)CCCC(C)(C)C4)ccc1c32 [Aplysulphurin (2), aplysulphurin] |  | 6.5 | 29.4 | 21.1 | 7.6 | 100 |  | IC50 (J774A.1 macrophages [5]; [9]): 12 µM; IC50 (Leishmania donovani [6]; J774A.1 macrophages, single point determination, listed as 2, read-out: Leishmania donovani IC50 Infected Macrophage): < 10 µM; IC50 (Leishmania donovani [6]; [7]): 3.1 µM; cytotoxicity towards uninfected primary human hepatocytes (in words) ([4]; 5 µg/mL screen): no discernable cytotoxicity; concentration with 100% inhibition against P. falciparum infected liver cells (Plasmodium falciparum; screen at fixed 5 µg/mL, 100% inhibition level (highest level)): ≤ 13 µM
9 | CC(=O)O[C@@H]1O[C@H](OC(C)=O)[C@@H]2[C@H]1CC[C@H](/C(C)=C1/CCCC1(C)C)C2(C)C [Compound 7] | 18 | 3.9 | 28.7 | 2.9 | 0.7 | 39.3 | 14 | 
10 | CC(=O)OC1OC(OC(C)=O)C2C1CCC(C1(C)CCCC(C)(C)C1)C21OC1C (centres unmarked) [Dendrillin A (9), dendrillin A] | 9 | 0 | 0 | 0 | 2.9 | 4.3 | 6 | 
11 | CCCCCCCCCCCCCCCCOP(=O)([O-])OCC[N+](C)(C)C [Miltefosine, miltefosine, reference compound] | > 120 |  |  |  |  |  | 2.9 | 
12 | C[C@H]1C(=O)O[C@@H]2OC[C@@H]3CCC([C@@]4(C)CCCC(C)(C)C4)=C1[C@@H]32 [Cadlinolide C (8), cadlinolide C] | > 160 | 2.6 | 35 | 85.4 | 0 | 0 | 16 | 
13 | C/C=C1/[C@@H]2[C@@H](OC(C)=O)O[C@@H](OC(C)=O)[C@@H]2CC[C@@H]1[C@@]1(C)CCCC(C)(C)C1 [9,11-Dihydrogracilin A (3), 9,11-dihydrogracilin A] |  | 0 | 29.1 | 12.7 | 1.1 | 0 |  | IC50 (J774A.1 macrophages [5]; [9]): 23 µM; IC50 (Leishmania donovani [6]; [7]): 9.1 µM
